Reference: patent EP0911330B1, “1-(4-Arylpiperazine-1-y1)-3-(2-oxopyrrolidin/piperidin-1-y1) propanes as therapeutic agents for hypertension, ischemia, cardiovascular and other adrenergic receptors related disorders” (Council of Scientific & Industrial Research, priority 1997, dated 1999)

Key:
cat [1] = test: Effect on blood pressure and adrenaline vasopressor response in anaesthetized cat, i.v. (Table 2); format: in vivo; settings: for inhibition at 2 µmol/kg / inhibition in vivo at 2 µmol/kg / inhibition at 10 µmol/kg / inhibition in vivo at 10 µmol/kg: Felis catus, iv; for inhibition at 2 µmol/kg / inhibition at 10 µmol/kg: read-out: Adrenaline vasopressure response % inhibition; for inhibition in vivo at 2 µmol/kg / inhibition in vivo at 10 µmol/kg: read-out: B.P. fall %
Procedure: • (a) Cats (2.6-4.0 kg) of either sex anaesthetized with pentobarbitone sodium (40 mg/kg i.v.) and showing basal mean arterial blood pressure below 150 mm (Hg) were categorised as normotensive and above 150 mm Hg as hypertensive. Arterial blood pressure (BP) was recorded from one of the carotid artery through a stathum P23 DC pressure transducer and 7P1 low level DC preamplifier on a Grass Model P7 Polygraph, Signals from 7P1 preamplifier were used to trigger 7P4 Tachograph preamplifier for recording the heart rate (HR). Right femoral vein and Trachea were cannulated for intravenous injections and artificial ventilation respectively. Control responses to intravenous injection of noradrenaline (2-4 ug); acetyl choline (1-2 ug); histamine ([…]) and isoprenaline (1-2 ug) were taken before and after the administration of test doses of each compounds.

[2] = system: Langendorff perfused rat heart; test: Antiischemic activity, Langendorff perfused rat heart, brief (16 min.) ischemic insult, compound given at reperfusion (Table 3); settings: 0.001 ug/ml at reperfusion
Procedure: Table 3: Compound administered at the time of reperfusion at a dose of 0.001 ug/ml on brief period (16 min.) of ischemic insult.
(§1) The rats were killed by decapitation, heart were rapidly excised and placed in ice-cold HEPES tyrode buffer. Then isolated hearts were perfused retrogradely through coronary arteries using the Langendorff technique. The perfusion buffer consisted (in mM) NaCl 137, KCl 5.4, CaCl2 1.8, MgCl2 1.0, glucose 11.2 and HEPES 3.0. The buffer (pH 7.4) was continuously gassed with oxygen and maintained at 37°C. Coronary flow rate was maintained at 10 ml/min. The heart contracted spontaneously.
(§2) The perfused heart was allowed to equilibrate for 30 min. before initiation of any insult protocol. The text compounds were given at the time of reperfusion. Some of the compounds were dissolved in ethanol. Final concentration of ethanol in the perfusion buffer was 0.0001% and had no effect of its own on the parameter used. • (a) For brief period of ischemic insult (Hideo et al.). Pathophysiology and pathogenesis of stunned myocardium. J. Clin. Invest., 79, 950-961, 1987). Ischemia was initiated by stopping the flow for 16 min. followed by 30 min. reperfusion period. The durations were decided on the initial pilot experiments leading to 50% recovery of function. • (b) For prolong period of ischemic insult (Becker, L.C. & Ambrosio, G. Myocardial consequences of reperfusion. Prog. Cardiovas. Dis., 30, 23-44, 1987). Ischemia was initiated by stopping the flow for […]. followed by 30 min. reperfusion.

[3] = system: Langendorff perfused rat heart preparation; test: Cardioprotective activity, Langendorff perfused rat heart, prolonged ischemic insult, compound given at reperfusion; settings: 10^-6M, ischemic insult 45 min.
Procedure: Further, in Langendorff perfused rat heart preparation subjected to even upto 90 min. global ischemia, the compound at 0.001 ug/ml conc. given at the time of reperfusion revived normal rhythmic contraction started within 2 min. (Table 1) and incidence of reperfusion induced arrhythmia were abolished. Table 1: Compound administered at the time of reperfusion at the dose of 0.001 ug/ml on prolong period (90 min.) of ischemic insult.
as §1, §2

cat [4] = test: Comparative antihypertensive effect with clinically used antihypertensive drugs in cat; format: in vivo; settings: 2 uMol/kg i.v.

Row | SMILES | inhibition at 2 µmol/kg (cat [1]; dose 2.0 umol/kg i.v.) [%] | inhibition in vivo at 2 µmol/kg (cat [1]; dose 2.0 umol/kg i.v.) [%] | inhibition at 10 µmol/kg (cat [1]; dose 10.0 umol/kg i.v.) [%] | inhibition in vivo at 10 µmol/kg (cat [1]; dose 10.0 umol/kg i.v.) [%] | Dur. (cat [1]; dose 2.0 umol/kg i.v.) | Dur. (cat [1]; dose 10.0 umol/kg i.v.) | Onset [2] [min] | Percentage recovery 15 min. [2] [Percentage] | Percentage recovery 30 min. [2] [Percentage] | Onset [3] [min] | B.P. fall (cat [4]) [%] | Dur. (cat [4]) [min]
1 | O=C1CCCCN1CCCN1CCN(c2ccc(F)cc2)CC1 [C6H4-4-F, n=2, 1-[4-(4-fluorophenyl)piperazin-1-yl]-3-[2-oxopiperidin-1-yl] propane] | 46 | 23 | > 100 | 33 | 40 min | >84 min | – | – | – | – | – | –
2 | O=C1CCCCN1CCCN1CCN(c2ccccn2)CC1 [2-Pyridyl, n=2, 1-[4-(2-pyridyl)piperazin-1-yl]-3-[2-oxopiperidin-1-yl] propane] | 28 | 34 | -20 to 0 | 42 | 53 min | >71 min | 2.0 | 47.60 | 71.40 | – | – | –
3 | CCc1ccc(N2CCN(CCCN3CCCC3=O)CC2)cc1 [C6H4-4-C2H5, n=1, 1-[4-(4-ethylphenyl)piperazin-1-yl]-3-[2-oxopyrrolidin-1-yl]propane] | – | 9 | – | 20 | Tr | 14 min | 2.0 | – | – | – | – | –
4 | O=C1CCCCN1CCCN1CCN(c2ccc(Cl)cc2)CC1 [C6H4-4-Cl, n=2, 1-[4-(4-chlorophenyl)piperazin-1-yl]-3-[2-oxopiperidin-1-yl] propane] | 20 | 24 | 25 | 46 | 20 min | 25 min | – | – | – | – | – | –
5 | O=C1CCCN1CCCN1CCN(c2ccc(Cl)cc2)CC1 [C6H4-4-Cl, n=1, 1-[4-(4-chlorophenyl)piperazin-1-yl]-3-[2-oxopyrrolidin-1-yl]propane] | – | – | – | – | – | – | 1.0 | – | – | – | – | –
6 | CCc1ccccc1N1CCN(CCCN2CCCC2=O)CC1 [C6H4-2-C2H5, n=1, 1-[4-(2-ethylphenyl)piperazin-1-yl]-3-[2-oxopyrrolidin-1-yl] propane] | -20 to 0 | 13 | – | 62 | 10 min | 10 min | 3.0 | – | – | – | – | –
7 | O=C1CCCN1CCCN1CCN(c2cccc(Cl)c2)CC1 [C6H4-3-Cl, n=1, 1-[4-(3-chlorophenyl)piperazin-1-yl]-3-[2-oxopyrrolidin-1-yl]propane] | -20 to 0 | 25 | – | – | 20 min | >57 min | 1.0 | – | – | – | – | –
8 | O=C1CCCCN1CCCN1CCN(c2cccc(C(F)(F)F)c2)CC1 [C6H4-3-CF3, n=2, 1-[4-(3-trifluoromethylphenyl)piperazin-1-yl]-3-[2-oxopiperidin-1-yl]propane] | -20 to 0 | – | 25 | 10 | – | Tr | – | – | – | – | – | –
9 | COC(=O)C1=C(C)NC(C)=C(C(=O)OC)C1c1ccccc1[N+](=O)[O-] [Nifedipine, reference compound] | – | – | – | – | – | – | – | – | – | 2.5 | – | –
10 | C[C@H](CS)C(=O)N1CCC[C@H]1C(=O)O [Captopril, reference compound] | – | – | – | – | – | – | – | – | – | – | 14 | 28
11 | O=C1CCCCN1CCCN1CCN(c2cccc(Cl)c2)CC1 [C6H4-3-Cl, n=2, 1-[4-(3-chlorophenyl)piperazin-1-yl]-3-[2-oxopiperidin-1-yl] propane] | 33 | 27 | 10 | 44 | 9 min | 62 min | 3.0 | 31.50 | 39.40 | – | – | –
12 | O=C1CCCN1CCCN1CCN(c2cccc(F)c2)CC1 [C6H4-3-F, n=1, 1-[4-(3-fluorophenyl)piperazin-1-yl]-3-[2-oxopyrrolidin-1-yl]propane] | 80 | 18 | > 100 | 32 | 3 min | 30 min | 2.0 | – | – | – | – | –
